The subject of assay [1] is Candida albicans. Put plainly: Antifungal activity against Candida albicans SC5314 assessed as inhibition of fungal growth incubated for 48 to 72 hrs by microplate reader analysis. It is filed as functional, organism-based. The conditions noted are these: time 48-72 hrs.
Assay [2] deals with Candida albicans. As to the kind of experiment: Antifungal activity against Candida albicans 103 assessed as inhibition of fungal growth incubated for 48 to 72 hrs by microplate reader analysis. The assay is classed as functional, organism-based. The following applies: time 48-72 hrs.
Assay [3] relates to Candida albicans. Put plainly: Antifungal activity against Candida albicans 9296 assessed as inhibition of fungal growth incubated for 48 to 72 hrs by microplate reader analysis. It is filed as functional, organism-based. The following applies: time 48-72 hrs.
The subject of assay [4] is [Candida] auris. As to the kind of experiment: Antifungal activity against Candida auris 15448 assessed as inhibition of fungal growth incubated for 48 to 72 hrs by microplate reader analysis. It is filed as functional, organism-based. The conditions noted are these: Candidozyma auris, time 48-72 hrs.
Assay [5] has as its system [Candida] auris. As to the kind of experiment: Antifungal activity against Candida auris 0029 assessed as inhibition of fungal growth incubated for 48 to 72 hrs by microplate reader analysis. It is filed as functional, organism-based. The conditions noted are these: Candidozyma auris, time 48-72 hrs.
Assay [6] has as its system [Candida] auris. As to the kind of experiment: Antifungal activity against Candida auris 0030 assessed as inhibition of fungal growth incubated for 48 to 72 hrs by microplate reader analysis. It is filed as functional, organism-based. The following applies: Candidozyma auris, time 48-72 hrs.
Assay [7] deals with Cryptococcus neoformans. As to the kind of experiment: Antifungal activity against Cryptococcus neoformans H99 assessed as inhibition of fungal growth incubated for 48 to 72 hrs by microplate reader analysis. The conditions noted are these: time 48-72 hrs. It is filed as functional.
The test system of assay [8] is Cryptococcus neoformans. As to the kind of experiment: Antifungal activity against Cryptococcus neoformans 011409 assessed as inhibition of fungal growth incubated for 48 to 72 hrs by microplate reader analysis. The assay is classed as functional. The conditions noted are these: time 48-72 hrs.
Assay [9] deals with Cryptococcus neoformans. As to the kind of experiment: Antifungal activity against Cryptococcus neoformans HN-68 assessed as inhibition of fungal growth incubated for 48 to 72 hrs by microplate reader analysis. It is filed as functional. The conditions noted are these: time 48-72 hrs.
A further assay deals with Cryptococcus gattii. As to the kind of experiment: Antifungal activity against Cryptococcus gattii 01063P assessed as inhibition of fungal growth incubated for 48 to 72 hrs by microplate reader analysis. It is filed as functional. The following applies: time 48-72 hrs.
The subject of assay [10] is Nakaseomyces glabratus. As to the kind of experiment: Antifungal activity against Candida glabrata 8535 assessed as inhibition of fungal growth incubated for 48 to 72 hrs by microplate reader analysis. It is filed as functional. The following applies: time 48-72 hrs.
The test system of assay [11] is Nakaseomyces glabratus. Put plainly: Antifungal activity against Candida glabrata 9256 assessed as inhibition of fungal growth incubated for 48 to 72 hrs by microplate reader analysis. The assay is classed as functional. The conditions noted are these: time 48-72 hrs.
Assay [12] deals with Nakaseomyces glabratus. Put plainly: Antifungal activity against Candida glabrata 0161 assessed as inhibition of fungal growth incubated for 48 to 72 hrs by microplate reader analysis. The assay is classed as functional. The following applies: time 48-72 hrs.

Molecules are shown by their SMILES. The source made the active and inactive calls. The rule behind the calls is not given here.

Regarding `CCCCCCCCc1ccc(NC(=S)n2[nH]c(N)cc2=O)cc1`, the result (in the assay on Candida albicans [1]; in the assay on Candida albicans [2]; in the assay on Candida albicans [3]; in assay [Candida] auris [4]; in assay [Candida] auris [5]; in [Candida] auris [6]) was Active. Also, the result in the assay on Cryptococcus neoformans [7], with Cryptococcus neoformans [8], with Cryptococcus neoformans [9], in the assay with Cryptococcus gattii, with Nakaseomyces glabratus [10] and with Nakaseomyces glabratus [11] was Active. Also, in the assay on Nakaseomyces glabratus [12], the outcome was Active.
Turning to `CCCCCCc1ccc(NC(=S)N2N=C(N)CCC2=O)cc1`, the result (in the assay with Candida albicans [1]; in the assay with Candida albicans [2]; in the assay with Candida albicans [3]; in assay [Candida] auris [4]; in [Candida] auris [5]; in [Candida] auris [6]) was inactive. Also, the result in the assay with Cryptococcus neoformans [7], with Cryptococcus neoformans [8], with Cryptococcus neoformans [9], with Cryptococcus gattii, with Nakaseomyces glabratus [10] and in the assay with Nakaseomyces glabratus [11] was inactive. Besides, the result in the assay with Nakaseomyces glabratus [12] was inactive.
For the compound `CC(=O)c1ccc(NC(=S)n2[nH]c(N)cc2=O)cc1`, the Activity result (in the assay with Candida albicans [1]; in the assay on Candida albicans [2]; in the assay on Candida albicans [3]; in [Candida] auris [4]; in assay [Candida] auris [5]; in assay [Candida] auris [6]) was “Not active; Compound Demonstrated Reduced Activity Compared To Lead Compound 1” in each case. Also, the Activity result in the assay on Cryptococcus neoformans [7], in the assay with Cryptococcus neoformans [8], with Cryptococcus neoformans [9] and in the assay on Cryptococcus gattii was “Not active; Compound Demonstrated Reduced Activity Compared To Lead Compound 1” throughout. The outcome with Nakaseomyces glabratus [10], in the assay with Nakaseomyces glabratus [11] and in the assay with Nakaseomyces glabratus [12] was Active.
For the compound `Nc1cc(=O)n(C(=S)Nc2cccnc2)[nH]1`, the outcome (in the assay on Candida albicans [1]; in the assay on Candida albicans [2]; with Candida albicans [3]; in assay [Candida] auris [4]; in assay [Candida] auris [5]; in [Candida] auris [6]) was inactive. In addition, the Activity entry in the assay with Cryptococcus neoformans [7], with Cryptococcus neoformans [8], with Cryptococcus neoformans [9], in the assay on Cryptococcus gattii, in the assay on Nakaseomyces glabratus [10] and in the assay on Nakaseomyces glabratus [11] was “Not active; Decrease In Activity Observed” in each case. For the same compound, the Activity result in the assay with Nakaseomyces glabratus [12] is “Not active; Decrease In Activity Observed”.
With `Nc1cc(=O)n(C(=S)Nc2ccc(OC3CCCCC3)cc2)[nH]1`, the result (with Candida albicans [1]; with Candida albicans [2]; with Candida albicans [3]; in [Candida] auris [4]; in [Candida] auris [5]; in assay [Candida] auris [6]) was Active. In addition, the outcome with Cryptococcus neoformans [7], in the assay on Cryptococcus neoformans [8], in the assay with Cryptococcus neoformans [9], with Cryptococcus gattii, with Nakaseomyces glabratus [10] and in the assay with Nakaseomyces glabratus [11] was Active. The result in the assay with Nakaseomyces glabratus [12] was Active.
On to `Nc1cc(=O)n(C(=S)Nc2ccc3c(c2)COC3=O)[nH]1`, for which the outcome (in the assay with Candida albicans [1]; in the assay on Candida albicans [2]; in the assay with Candida albicans [3]; in assay [Candida] auris [4]; in assay [Candida] auris [5]; in assay [Candida] auris [6]) was inactive. The Activity entry in the assay on Cryptococcus neoformans [7], in the assay with Cryptococcus neoformans [8], in the assay with Cryptococcus neoformans [9], in the assay on Cryptococcus gattii, in the assay with Nakaseomyces glabratus [10] and in the assay with Nakaseomyces glabratus [11] was “Not active; Decrease In Activity Observed” each time. In addition, in the assay with Nakaseomyces glabratus [12], the Activity result is “Not active; Decrease In Activity Observed”.
Take `CNC(=O)c1ccc(NC(=S)n2[nH]c(N)cc2=O)cc1`: the Activity entry (in the assay with Candida albicans [1]; in the assay with Candida albicans [2]; in the assay on Candida albicans [3]; in assay [Candida] auris [4]; in assay [Candida] auris [5]; in [Candida] auris [6]) was “Not active; Compound Demonstrated Reduced Activity Compared To Lead Compound 1” throughout. Moreover, the Activity entry in the assay on Cryptococcus neoformans [7], in the assay on Cryptococcus neoformans [8], in the assay on Cryptococcus neoformans [9] and in the assay with Cryptococcus gattii was “Not active; Compound Demonstrated Reduced Activity Compared To Lead Compound 1” each time. Besides, the result in the assay with Nakaseomyces glabratus [10], in the assay on Nakaseomyces glabratus [11] and in the assay on Nakaseomyces glabratus [12] was Active.
Turning to `S=C(Nc1ccc(C2CCCCC2)cc1)Nc1cc[nH]n1`, the outcome (with Candida albicans [1]; in the assay with Candida albicans [2]; in the assay with Candida albicans [3]; in assay [Candida] auris [4]; in [Candida] auris [5]; in [Candida] auris [6]) was inactive. Besides, the result in the assay on Cryptococcus neoformans [7], in the assay on Cryptococcus neoformans [8], in the assay with Cryptococcus neoformans [9], with Cryptococcus gattii, in the assay on Nakaseomyces glabratus [10] and with Nakaseomyces glabratus [11] was inactive. Also, the outcome in the assay on Nakaseomyces glabratus [12] was inactive.
Regarding `Nc1cc(=O)n(C(=S)Nc2ccc(C(F)(F)F)cc2)[nH]1`, the Activity entry (in the assay on Candida albicans [1]; in the assay with Candida albicans [2]; with Candida albicans [3]; in assay [Candida] auris [4]; in assay [Candida] auris [5]; in [Candida] auris [6]) was “Not active; Compound Demonstrated Reduced Activity Compared To Lead Compound 1” throughout. Moreover, the Activity result in the assay on Cryptococcus neoformans [7], in the assay on Cryptococcus neoformans [8], in the assay with Cryptococcus neoformans [9] and with Cryptococcus gattii was “Not active; Compound Demonstrated Reduced Activity Compared To Lead Compound 1” in each case. Besides, the result in the assay with Nakaseomyces glabratus [10], in the assay with Nakaseomyces glabratus [11] and in the assay with Nakaseomyces glabratus [12] was Active.
With `Nc1cc(=O)n(C(=S)Nc2ccc3ncccc3c2)[nH]1`, the Activity result (in the assay with Candida albicans [1]; in the assay with Candida albicans [2]; in the assay on Candida albicans [3]; in [Candida] auris [4]; in [Candida] auris [5]; in assay [Candida] auris [6]) was “Not active; Decrease In Activity Observed” each time. Also, the outcome in the assay on Cryptococcus neoformans [7], in the assay on Cryptococcus neoformans [8], with Cryptococcus neoformans [9], in the assay on Cryptococcus gattii, in the assay on Nakaseomyces glabratus [10] and in the assay with Nakaseomyces glabratus [11] was Active. Besides, the outcome in the assay on Nakaseomyces glabratus [12] was Active.

The record behind these values is ChEMBL document CHEMBL6109146, “Discovery of New Pyrazolone Carbothioamide Derivatives as Potent Antifungal Agents for the Treatment of Candidiasis and Cryptococcosis” (J Med Chem, 2025).
